Measured values published in patent US20020183327A1, “Bicyclic imidazo-3-yl-amine derivatives substituted on the 6-membered ring” (GRUENENTHAL GMBH., priority 1999, published 2002).

Tested on: α2-subtype of the human α-adrenergic receptor
Assay: SPA assay, affinity for the α2-subtype of the human α-adrenergic receptor
Assay type: binding
Conditions: at a concentration of 10 μM
Procedure: The affinity for the α2-subtype of the human α-adrenergic receptor was determined by means of a SPA assay conventionally used for high throughput screening as described in John P. Devlin, High Throughput Screening, Marcel Dekker Inc. 1997, pp. 307 to 316. This literature is introduced here as a reference and thus forms part of the disclosure. At a concentration of 10 μM, the following affinities for the listed examples were determined: […]

Row | Structure (SMILES) | α2-affinity, 10 μM [%]
1 | [C-]#[N+]CCCCCCNc1c(C2CCCCC2)nc2cccc(C)n12 [Example 16] | 67
2 | Cc1ccn2c(NC3CCCCC3)c(C)nc2c1 [Example 18, cyclohexyl-(2,7-dimethylimidazo[1,2-a]pyridin-3-yl)-amine] | 74
3 | Cc1cc(C)n2c(NC3CCCCC3)c(C)nc2c1 [Example 19, cyclohexyl-(2,5,7-trimethylimidazo[1,2-a]pyridin-3-yl)-amine] | 81
4 | [C-]#[N+]CCCCCCNc1c(-c2ccc(OC)c(OC)c2)nc2ccc(C)cn12 [Example 20, [2-(3,4-dimethoxyphenyl)-6-methylimidazo[1,2-a]pyridin-3-yl]-(6-isocyanohexyl)-amine] | 85
5 | [C-]#[N+]CCCCCCNc1c(-c2ccc(OC)c(OC)c2)nc2cc(C)ccn12 [Example 24, [2-(3,4-dimethoxyphenyl)-7-methylimidazo[1,2-a]pyridin-3-yl]-(6-isocyanohexyl)-amine] | 75
6 | [C-]#[N+]CCCCCCNc1c(-c2ccccc2OC)nc2ccc(C)cn12 [Example 25, (6-isocyanohexyl)-[2-(2-methoxyphenyl)-6-methyl-imidazo[1,2-a]pyridin-3-yl]-amine] | 51
7 | FC(F)(F)c1ccc2nc(-c3ccco3)c(NC3CCCCC3)n2c1 [Example 26, cyclohexyl-(2-furan-2-yl-6-trifluoromethylimidazo[1,2-a]pyridin-3-yl)-amine] | 70
8 | COC(=O)CNc1c(C2CCCCC2)nc2c(OCc3ccccc3)cccn12 [Example 30, (8-benzyloxy-2-cyclohexylimidazo[1,2-a]pyridin-3-ylamino)-acetic acid methyl ester] | 60
9 | CCCCNc1c(C2CCCCC2)nc2cccc(CCC)n12 [Example 32, Butyl-(2-cyclohexyl-5-propylimidazo[1,2-a]pyridin-3-yl)-amine] | 61
10 | CC(=O)N(c1c(-c2ccco2)nc2c(Cl)cc(Cl)cn12)C1CCCCC1 [Example 33, N-cylcohexyl-N-(6,8-dichloro-2-furan-2-yl-imidazo[1,2-a]pyridin-3-yl)-acetamide] | 73
11 | CC(=O)N(c1c(-c2ccco2)nc2ccc(C(F)(F)F)cn12)C1CCCCC1 [Example 34, N-cylcohexyl-N-(2-furan-2-yl-6-trifluoromethylimidazo[1,2-a]pyridin-3-yl)-acetamide] | 72
12 | CC(=O)N(c1c(C2CCCCC2)nc2c(OCc3ccccc3)cccn12)C1CCCCC1 [Example 35, N-(8-benzyloxy-2-cyclohexylimidazo[1,2-a]pyridin-3-yl)-N-cyclohexyl-acetamide] | 75

Now from value to compound:

Row | α2-affinity, 10 μM [%] | Structure (SMILES)
13 | 65 | Cc1ccc2nc(C)c(NC(C)(C)CC(C)(C)C)n2c1 [Example 17, (2,6-dimethylimidazo[1,2-a]pyridin-3-yl)-(1,1,3,3-tetramethylbutyl)-amine]
14 | 109 | Cc1ccn2c(NC(C)(C)CC(C)(C)C)c(C)nc2c1 [Example 21, (2,7-dimethylimidazo[1,2-a]pyridin-3-yl)-(1,1,3,3-tetramethylbutyl)-amine]
15 | 69 | Cc1nc2c(C)cccn2c1NC(C)(C)CC(C)(C)C [Example 22, (2,8-dimethyl-imidazo[1,2-a]pyridin-3-yl)-(1,1,3,3-tetramethylbutyl)-amine]
16 | 97 | Cc1cc(C)n2c(NC(C)(C)CC(C)(C)C)c(C)nc2c1 [Example 23, (1,1,3,3-tetramethylbutyl)-(2,5,7-trimethylimidazo[1,2-a]pyridin-3-yl)-amine]
17 | 100 | Cc1nc2c(OCc3ccccc3)cccn2c1NC(C)(C)CC(C)(C)C [Example 29, (8-benzyloxy-2-methylimidazo[1,2-a]pyridin-3-yl)-(1,1,3,3-tetramethylbutyl)-amine]
18 | 61 | COC(=O)CNc1c(C)nc2c(OCc3ccccc3)cccn12 [Example 31, (8-benzyloxy-2-methylimidazo[1,2-a]pyridin-3-ylamino)-acetic acid methyl ester]
